Assay type in all cases: in vivo, human
Data set [1] relates to patient with hip osteoarthritis. Briefly: Example 1: intra-articular hip infiltration one month before total hip prosthesis, postoperative pain. As to the method:
A patient with hip osteoarthritis and pain for 2 years was not treatable anymore with conventional pain medication (NSAIDS, Paracetamol, opioids, etc.) or infiltration (corticosteroids, hyaluronic acid). Therefore the patient was treated with an infiltration into the hip joint under fluoroscopic control with 0.8 micrograms of Resiniferatoxin dissolved in 250 microliters of Ethanol and mixed with 5 ml buffer solution.
10 minutes prior to the injection a local anesthetic (5 ml lidocaine 2%) was applied under fluoroscopic control intra-articularly to prevent injection pain. Moderate post-injection pain after RTX was controlled with oral administration of morphine. One month later the patient still suffered from relevant impairment of hip mobility and peritrochanteric pain and was treated with implantation of a total hip prosthesis.

The subject of data set [2] is patients with symptoms of frozen shoulders. Put plainly: Example 4: intra-articular treatment before arthroscopic capsular release, pain and mobility. As to the method: A series of 3 patients with symptoms of frozen shoulders (VAS >6) for at least six month were scheduled for arthroscopic capsular release. All patients were treated with an intra-articular treatment with 2 micrograms of resiniferatoxin dissolved in 10 ml of physiological salt solution containing 4 mM Ca^2+ with immediate prior administration (2.5 and 15 minutes prior to resiniferatoxin) of a local anesthetic (5 ml 0.25% ropivacaine) at 29, 32 and 40 days preoperatively.
Thereafter pain regressed 2 weeks after injection to a level below VAS 3 in all patients. The postoperative pain treatment after capsulotomy included 5 days of regional continuous anesthesia.

For data set [3], the system named is patient with symptomatic hallux valgus. Briefly: Example 5: intra-articular injection one month before hallux valgus surgery, postoperative pain. Particulars: 200 ng intra-articular one month preoperatively; 2 ml 2% Lidocaine 5 minutes prior; 1 patient. On the procedure: A patient with symptomatic hallux valgus was scheduled for surgical treatment. One month preoperatively an intra articular injection 1 ml resiniferatoxin (200 ng) was administered into the interphalangeal join space with prior (5 minutes) periarticular anesthesia using 2 ml 2% Lidocaine.

The test system of data set [4] is patient with anterior cruciate ligament rupture with medial meniscal tear. Briefly: Example 2: intra-articular treatment 3 weeks before cruciate ligament and meniscal repair, postoperative pain and range of motion. On the procedure:
A physiotherapist suffered a traumatic anterior cruciate ligament rupture with medial meniscal tear. Due to unacceptable symptoms of instability a surgical reconstruction was scheduled. During the waiting period for the operation 3 weeks preoperatively an intra-articular treatment with 2 micrograms of resiniferatoxin dissolved in Ringers lactate buffer at a concentration of 200 ng/ml with immediate prior administration (i.e. within 1 minute) of a local anesthetic (5 ml 0.5% bupivacaine) was applied.
Three weeks later a crucial ligament repair using patellar tendon autograft and arthroscopic meniscal repair was performed. Postoperative pain was restricted to the first 72 hours and below VAS 2 thereafter. Unexpectedly the passive range of motion was flex-extension of 130-0-0° 3 weeks after the operation and further improving thereafter with minimal (VAS 1) pain.

The subject of data set [5] is patients with transtendinous rotator cuff tears. Put plainly: Example 3: subacromial injection 2 to 6 weeks before arthroscopic cuff repair, postoperative pain and mobility. As to the method: A series of 5 patients with a mean age 62 years and transtendinous rotator cuff tears and having been scheduled for arthroscopic cuff repair was 2 to 6 weeks (13 days for two patients and 16,23 and 41 days for the other three patients) preoperatively treated with a subacromial injection of 0.4 microgram resiniferatoxin dissolved in 10 ml 2% lidocaine.
Postinjection pain was controlled with ice packs and NSAIDS. The postoperative pain protocol included 48 hours of interscalene continuous regional anesthesia. Thereafter pain was exceptionally low (VAS <2) in four out of five patients.

Data set [6] relates to patient with painful rizarthrosis. Briefly: Example 6: injection into painful joint base before surgery for rizarthrosis, postoperative pain. As to the method: A patient with painful rizarthrosis was scheduled for surgical treatment of the disease on week prior to the operation. the patient was injected with 1 ml of a physiological saline solution containing 0.9 mg capsaicin into the painful joint base without prior administration of local anesthetics. The massive pain was treated with ice packs and inter-muscular morphine.

`C=C(C)[C@]12C[C@@H](C)[C@@]34O[C@](Cc5ccccc5)(O[C@@H]1[C@@H]3C=C(COC(=O)Cc1ccc(O)c(OC)c1)C[C@]1(O)C(=O)C(C)=C[C@@H]41)O2` [resiniferatoxin]: in data set [1] (0.8 micrograms intra-articular hip, 5 ml lidocaine 2% 10 minutes prior, controlled with oral morphine), the post-injection pain result was “Moderate”. Also, the “need for per oral pain medication” value in data set [1] (after second postoperative day) was “did not need any further per oral pain medication”. For the same compound, the pain reported thereafter entry in data set [1] (after second postoperative day) is “virtually no pain”. Further, the postoperative pain entry in data set [1] (after total hip prosthesis one month after 0.8 micrograms infiltration, 1 patient) was “moderate to none”. Moreover, the “postoperative pain (VAS)” value is 5 VAS in data set [1] (first postoperative day); 2 VAS in data set [1] (second postoperative day); less than 3 VAS in data set [2] (after 5 days of regional continuous anesthesia following capsulotomy, all patients); less than 2 VAS in data set [4] (after the first 72 hours); less than 2 VAS in data set [5] (after 48 hours of interscalene regional anesthesia, in four out of five patients, 0.4 microgram in 10 ml 2% lidocaine subacromial). Besides, in data set [2] (2 weeks after injection, before surgery, all 3 patients, 2 micrograms intra-articular with 4 mM Ca2+, 5 ml 0.25% ropivacaine prior, baseline VAS >6), the “pain level (VAS)” value is less than 3 VAS. In addition, the “maintenance of intraoperatively achieved mobility” value in data set [2] (after capsulotomy, all patients) is reported as “able to fully maintain their intraoperatively achieved mobility”. Besides, in data set [3], the “need for pain medication after surgery” value is given as “did not need further pain medication after the second day after surgery”. In addition, the “duration of postoperative pain” value in data set [4] (2 micrograms intra-articular 3 weeks preoperatively, 5 ml 0.5% bupivacaine immediately prior, 1 patient) was not above 72 h. Besides, the “pain (VAS)” value in data set [4] (from 3 weeks after the operation, range of motion further improving) is recorded as 1 VAS. The “clinical signs of stiff or frozen shoulder” value in data set [5] (postoperative course up to 1 year follow up) is reported as “no clinical signs corresponding to a stiff or frozen shoulder were observed”. In data set [5] (six weeks postoperatively), the glenohumeral abduction entry is recorded as “at least 80 °”. In addition, the “pain upon passive external rotation” value in data set [5] (six weeks postoperatively, 5 patients) is “none of the patients reported pain”. Moreover, the “passive external rotation, difference to contralateral side” value in data set [5] (six weeks postoperatively, all patients) was not above 15 °.

In the case of `COc1cc(CNC(=O)CCCC/C=C/C(C)C)ccc1O` [capsaicin], the pain after injection result in data set [6] (0.9 mg in 1 ml saline without prior local anesthetics, treated with ice packs and morphine) is recorded as “massive pain”. Also, the postoperative pain result in data set [6] (0.9 mg injected on(e) week prior to the operation, 1 patient) was “almost no postoperative pain”.

(Values after patent US20250248968A1, “COMPOSITION COMPRISING CAPSAICIN OR A CAPSACINOID” (MESTEX AG, priority 2019, published 2025).)
